Measurements taken from US10485885B2, “Compositions and methods for delivery of agents” (ModernaTX, Inc., priority 2015, dated 2019).

Test system: circulating B cells and monocytes
Experiment: B cell, B1a cell and monocyte frequencies and activation in non-human primate PBMCs
Type: in vivo, cynomolgus monkeys
Method: The percentage of monocyte activation was also measured at pre-bleed, day 1, day 22, day 43, and day 44 of the study.
FIGS. 84A and 84B show the EPO expression after the first injection and after the fifth injection. In particular, the concentration of EPO (ng/mL) was measured at 2 hours, 6 hours, 12 hours, 24 hours, and 48 hours following the first injection and the fifth injection. FIGS. 85A-85E show the EPO expression for each of the co-medications on day 1 and day 29 of the study. In particular, the concentration of EPO (ng/mL) was measured on day 1 and day 29 at 2 hours, 6 hours, 12 hours, 24 hours, and 48 hours for each co-medication group. Immune cell populations were also measured. Specifically, the percentage of B cells (FIG. 86A), B1a cells (FIG. 86B), and monocytes (FIG. 86C) in PBMCs was measured for each co-medication group at day-7, 24 hours post first injection, and 24 hours post fifth injection. B cell activation is reflected in FIG. 87. The percentage of activated B cells in circulating B cells was measured for each co-medication group at day-7, 24 hours post first injection, and 24 hours post fifth injection.
Monocyte activation is reflected in FIG. 88. The percentage of activated monocytes/macrophages in circulating PBMCs was measured for each co-medication group at day-7, 24 hours post first injection, and 24 hours post fifth injection. […] An increase in the percentage of activated monocytes/macrophages post injection was only observed in the fingolimod co-medication group.

[1] = co-medication with hEPO mRNA MC3-LNP, 24 hours post first injection

| Compound | Percentage of activated B cells in circulating B cells [1] | B cell frequencies in PBMCs (cynomolgus monkey, in vivo) | Percentage of activated B cells in circulating B cells (cynomolgus monkey, in vivo) | Frequencies of monocytes in PBMCs (co-medication) | Percentage of activated monocytes/macrophages post injection (co-medication) |
| --- | --- | --- | --- | --- | --- |
| COc1cc(Nc2ncc(F)c(Nc3ccc4c(n3)N(COP(=O)(O)O)C(=O)C(C)(C)O4)n2)cc(OC)c1OC [fostamatinib] | normal B cell activation similar to that of the control group | – | – | – | – |
| CC[C@H](Nc1ncnc2[nH]cnc12)c1nc2cccc(F)c2c(=O)n1-c1ccccc1 [idelalisib] | – | slightly reduced | B cell activation was not observed | – | – |
| CCCCCCCCc1ccc(CCC(N)(CO)CO)cc1 [fingolimod] | normal B cell activation similar to that of the control group | – | – | significant decrease | increase |
